According to US7829588B2, “Modulators of the PPAR-type receptors and pharmaceutical/cosmetic applications thereof” (Galderma Research & Development, priority 2003, dated 2010):
pKd: −log10 of the molar value.

Tests used:
PPARγ = target: T1, PPARγ (Homo sapiens, UniProt P37231); assay: Cross curve PPAR transactivation test (luciferase reporter, HeLN cells), PPARγ; assay type: cell-based; conditions: HeLN cells stably transfected with Gal-hPPARγ and ERE-βGlob-Luc-SV-Neo; Schild regression against reference agonist; read-out: PPAR γ Kd app
T1 construct: luciferase reporter plasmid ERE-βGlob-Luc-SV-Neo
T1 sequence (P37231 238-505 limits assumed): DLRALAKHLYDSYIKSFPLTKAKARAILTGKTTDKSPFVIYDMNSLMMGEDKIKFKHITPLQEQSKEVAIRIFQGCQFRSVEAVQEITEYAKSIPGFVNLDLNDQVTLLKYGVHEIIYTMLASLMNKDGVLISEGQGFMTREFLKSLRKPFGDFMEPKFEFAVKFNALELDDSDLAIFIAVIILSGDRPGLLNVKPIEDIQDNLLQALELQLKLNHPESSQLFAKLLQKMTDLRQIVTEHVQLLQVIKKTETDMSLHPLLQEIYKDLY
Protocol: (§1) The activation of receptors with an agonist (activator) in HeLN cells leads to the expression of a reporter gene, luciferase, which, in the presence of a substrate, generates light. The modulation of the receptors is measured as quantity of luminescence produced after incubating the cells in the presence of a reference agonist. The ligands will displace the agonist from its site. The measurement of the activity is performed by quantification of the light produced. This measurement makes it possible to determine the modulatory activity of the compounds according to the invention by determining the constant which is the affinity of the molecule for the receptor. […]
(§2) The various dilutions of the test products and of the reference ligand are added in an amount of 5 μl per well. […] After 5 minutes, the plates are read by the luminescence reader.
(§3) These cross curves make it possible to determine the AC50 values (concentrations at which 50% activation is observed) for the reference ligand at various concentrations of test product. These AC50 values are used to calculate the Schild regression by plotting a straight line corresponding to the Schild equation (“Quantitation in Receptor Pharmacology” Terry P. Kenakin, Receptors and Channels, 2001, 7, 371-385) which leads to Kd app values being obtained (in nM).

PPARα = target: T2, PPARα (Homo sapiens, UniProt Q07869); assay: Cross curve PPAR transactivation test (luciferase reporter, HeLN cells), PPARα; assay type: cell-based; conditions: HeLN cells stably transfected with Gal-hPPARα and ERE-βGlob-Luc-SV-Neo; Schild regression against reference agonist; n.a. means not active; read-out: PPAR α Kd app
T2 sequence (Q07869 200-468 limits assumed): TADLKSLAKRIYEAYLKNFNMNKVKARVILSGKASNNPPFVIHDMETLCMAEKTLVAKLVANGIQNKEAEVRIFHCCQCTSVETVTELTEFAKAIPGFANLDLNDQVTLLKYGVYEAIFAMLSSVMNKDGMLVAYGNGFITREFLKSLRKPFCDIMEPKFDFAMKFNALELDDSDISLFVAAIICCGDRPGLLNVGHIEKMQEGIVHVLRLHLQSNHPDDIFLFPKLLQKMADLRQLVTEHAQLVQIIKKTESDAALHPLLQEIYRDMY
Protocol: as §1, §2, §3

pKd (PPARγ)	pKd (PPARα)	Compound
7.82	5.10	CCCCCCCOc1cc(Sc2nnc(-c3ccc(C(C)(C)C)cc3)n2C)ccc1CNc1ccc(CC(=O)O)cc1 [Example 2, (4-{4-[5-(4-tert-Butylphenyl)-4-methyl-4H-[1,2,4]-triazol-3-ylsulfanyl]-2-heptyloxybenzylamino}phenyl)acetic acid]
7.22		CCCCCCCOc1cc(Sc2nnc(-c3ccc(C(C)(C)C)cc3)n2C)ccc1CNc1ccc(CC(=O)OCC)cc1 [Example 1, Ethyl(4-{4-[5-(4-tert-butylphenyl)-4-methyl-4H-[1,2,4]-triazol-3-ylsulfanyl]-2-heptyloxybenzylamino}phenyl)acetate]
